Data: patent US20180085345A1, “METHODS OF TRACKING SKIN CONDITIONS USING CYCLOLIGNAN COMPOUNDS” (m. Alphabet 2, L.L.C., priority 2015, published 2018)

Assays:
actinic keratoses = test: Randomized, blinded study of topical picropodophyllin solution in actinic keratoses: lesion count in the treatment area; type: in vivo, patients; conditions: topical twice daily for 1 week
Procedure: To date, 56 patients have been studied to determine the efficacy of picropodophyllin in treating actinic keratoses. The patients were randomized into four groups, and the patients in each group were treated with a solution containing either 0.5%, 1.25%, or 2.0% picropodophyllin (w/v) in propylene glycol, or a placebo constituting only the vehicle propylene glycol. The picropodophyllin solution was prepared in 100% propylene glycol solution. The solutions were prepared aseptically following GMP protocols. The affected areas of the body variously included the scalp, face, arms, and legs. Without knowing which one of the four solutions they were applying, the subjects self-applied one of the solutions to the skin. After initial application, the subjects gently massaged the solutions into their skin. This was done twice daily for 1 week. Lesions (actinic keratosis) were palpated and visualized by a trained lesion counter who is a board certified dermatologist. The same investigator evaluated each subject at each visit for consistency. The subjects were evaluated at baseline, day 3, day 7, day 14, day 28, day 56 and day 90. Within the treatment area, the number of lesions were counted, regardless of their size. The change in the number of lesions (% decline from baseline) within the treatment area was calculated and the results are shown in the table below: […]

[1] = tested on: insulin-like growth factor-1 (IGF-1); conditions: shown in WO 02/102804; cited from earlier work
[2] = cited from earlier work

With `COc1cc([C@@H]2c3cc4c(cc3[C@H](O)[C@H]3COC(=O)[C@@H]23)OCO4)cc(OC)c1OC` [PPP, picropodophyllin] the “% Decline from Baseline (number of lesions within the treatment area)” value (from here on “% Decline from Baseline”) (actinic keratoses; 0.50% w/v in propylene glycol, 28 days) was −56^AB %, the “% Decline from Baseline” value (actinic keratoses; 0.50% w/v in propylene glycol, 56 days) was −82^AB % and the “% Decline from Baseline” value (actinic keratoses; 0.50% w/v in propylene glycol, 90 days) was −90^AB %. For the same compound, the “% Decline from Baseline” value (actinic keratoses; 1.25% w/v in propylene glycol, 28 days) was −53^AB %, the “% Decline from Baseline” value (actinic keratoses; 1.25% w/v in propylene glycol, 56 days) was −73^AB % and the “% Decline from Baseline” value (actinic keratoses; 1.25% w/v in propylene glycol, 90 days) was −65^AB %. The “% Decline from Baseline” value (actinic keratoses; 2.00% w/v in propylene glycol, 28 days) was −17%, the “% Decline from Baseline” value (actinic keratoses; 2.00% w/v in propylene glycol, 56 days) was −55^AB % and the “% Decline from Baseline” value (actinic keratoses; 2.00% w/v in propylene glycol, 90 days) was −84^AB %. The “inhibition of insulin-like growth factor-1 (IGF-1)” value [1] was “potent inhibitor” and the solubility in water [2] was “nearly completely insoluble”.
